Earlier results, collected in patent US20100092398A1, “ANTIMICROBIAL COMPOSITIONS AND APPLICATIONS THEREFORE” (priority 2004, published 2010).

Details: range given for terpinen-4-ol

## CC1=CCC(O)(C(C)C)CC1 (stereo not shown) [terpinen-4-ol]
  Relative density @ 20° C.: 0.930 to 0.936 g/mL
